{"source": "ChEMBL document CHEMBL5029156", "about": "(J Med Chem, 2021)", "key": {"[1]": {"target": "T1, Aldehyde oxidase (Homo sapiens, UniProt Q06278)", "T1 sequence (Q06278 whole entry)": "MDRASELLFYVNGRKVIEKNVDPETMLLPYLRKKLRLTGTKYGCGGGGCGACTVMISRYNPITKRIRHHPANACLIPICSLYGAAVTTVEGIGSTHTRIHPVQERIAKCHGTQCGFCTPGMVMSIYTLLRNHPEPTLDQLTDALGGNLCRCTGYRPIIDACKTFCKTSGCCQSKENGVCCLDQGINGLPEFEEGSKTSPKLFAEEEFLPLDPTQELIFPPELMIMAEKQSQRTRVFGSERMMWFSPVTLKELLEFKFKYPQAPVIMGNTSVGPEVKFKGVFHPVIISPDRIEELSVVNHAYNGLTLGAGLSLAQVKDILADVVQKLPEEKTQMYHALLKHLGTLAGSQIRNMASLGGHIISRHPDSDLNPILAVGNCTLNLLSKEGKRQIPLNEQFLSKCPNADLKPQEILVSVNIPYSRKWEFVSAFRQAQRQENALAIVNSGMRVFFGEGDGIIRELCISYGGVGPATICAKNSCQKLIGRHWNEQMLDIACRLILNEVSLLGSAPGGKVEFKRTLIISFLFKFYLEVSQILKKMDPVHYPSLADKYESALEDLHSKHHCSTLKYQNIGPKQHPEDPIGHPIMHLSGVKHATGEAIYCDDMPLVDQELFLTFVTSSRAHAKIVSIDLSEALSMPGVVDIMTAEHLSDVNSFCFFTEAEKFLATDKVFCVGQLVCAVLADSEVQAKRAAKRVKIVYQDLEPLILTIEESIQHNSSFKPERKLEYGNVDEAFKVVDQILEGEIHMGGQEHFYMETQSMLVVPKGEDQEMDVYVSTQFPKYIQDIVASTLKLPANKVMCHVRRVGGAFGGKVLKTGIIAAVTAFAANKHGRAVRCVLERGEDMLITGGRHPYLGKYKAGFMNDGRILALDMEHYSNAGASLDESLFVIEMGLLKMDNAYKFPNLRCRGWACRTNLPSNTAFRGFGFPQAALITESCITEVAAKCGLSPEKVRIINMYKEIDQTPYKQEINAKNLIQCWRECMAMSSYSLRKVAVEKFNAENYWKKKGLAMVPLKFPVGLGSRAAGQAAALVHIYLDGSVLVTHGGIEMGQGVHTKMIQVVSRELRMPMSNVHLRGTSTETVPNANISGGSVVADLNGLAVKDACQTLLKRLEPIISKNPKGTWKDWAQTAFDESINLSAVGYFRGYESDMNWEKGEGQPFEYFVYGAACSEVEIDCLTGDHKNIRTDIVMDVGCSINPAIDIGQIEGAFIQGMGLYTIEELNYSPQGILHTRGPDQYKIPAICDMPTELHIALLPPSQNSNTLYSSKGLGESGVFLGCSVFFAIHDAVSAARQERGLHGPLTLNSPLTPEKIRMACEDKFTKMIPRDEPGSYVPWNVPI", "assay": "Mixed type inhibition of human AOX assessed as inhibitor dissociation constant by measuring changes in slope of the double reciprocal plot using phenanthridine as substrate by Michaelis-Menten analysis", "details": "read-out: Kis"}, "[2]": {"target": "T1, Aldehyde oxidase", "assay": "Mixed type inhibition of human AOX assessed as inhibitor dissociation constant by measuring changes in intercept of the double reciprocal plot using phenanthridine as substrate by Michaelis-Menten analysis", "details": "read-out: Kii"}, "[3]": {"target": "T1, Aldehyde oxidase", "assay": "Noncompetitive type inhibition of human AOX assessed as inhibitor dissociation constant by measuring slope of the double reciprocal plot using phthalazine as substrate by Michaelis-Menten analysis", "details": "read-out: Kis"}, "[4]": {"target": "T1, Aldehyde oxidase", "assay": "Noncompetitive type inhibition of human AOX assessed as inhibitor dissociation constant by measuring changes in intercept of the double reciprocal plot using phthalazine as substrate by Michaelis-Menten analysis", "details": "read-out: Kii"}}, "data": [{"smiles": "N=C(N)c1ccccc1", "note": "[BENZAMIDINE]", "values": [{"measurement": "Ki", "setting": "[1]", "result": 1240, "unit": "µM"}, {"measurement": "Ki", "setting": "[2]", "result": 1620, "unit": "µM"}]}, {"smiles": "CSc1ccc2c(c1)N(CCC1CCCCN1C)c1ccccc1S2", "note": "(centres undefined) [THIORIDAZINE]", "values": [{"measurement": "Ki", "setting": "[3]", "result": 1.3, "unit": "µM"}, {"measurement": "Ki", "setting": "[4]", "result": 1.3, "unit": "µM"}]}]}
